Where no end group is shown, it is not given here.

For one assay, the system named is zebrafish embryos. The experiment in a line: HSPC marker expression in zebrafish embryos (whole mount in situ hybridization). The format is in vivo. As for the experimental part: (§1) Zebrafish embryos were treated with the following chemical modulators in E3 fish media: 100 uM L-NAME (Fisher Scientific), 50 uM Digitoxigenin (Sigma), 25-50 uM Yoda1 (Cayman Chemical), 1 uM Nanaomycin (Nana; Fisher Scientific), 100 uM Gadolinium chloride (GdCl3; Sigma), 5-10 uM 4α-phorbol 12, 13-didecanaote (4Apdd; Sigma), or GSK205 (10 uM).
Whole mount in situ hybridizations was performed as previously described.

Another assay has as its system E11.5 AGM cells. The experiment in a line: Hematopoietic CFU and FACS assays on E11.5 AGM cells. The format is cell-based, mouse. The settings on record: for GEMM formation: 50 μM. Here is the method: Pulsating blood vessels like conditions were stimulated in vitro using Flexcell FX-4000 machine. To analyze roles of pharmacological targets in regulating the endothelial-to-HSC transition, mouse embryo-derived AGM or whole mouse embryo were exposed ex vivo with biomechanical stretching, chemicals, or drugs. Next, hematopoietic colony formation assays were performed by incubating mouse AGM-derived cells in StemCell M3434 media for seven days. Serial transplantation of AGM-derived HSCs in lethally irradiated SJL mice were performed. The stem cell frequency upon biomechanical stretching was analyzed using a limiting dilution assay. To characterize properties of AGM-HSC-derived blood cells in primary transplants, percentage chimerism and reconstitution was measured using FACS, globin transcripts were analyzed using quantitative reverse transcriptase-PCR, myeloperoxidase amount was measured using PicoKine ELISA kit, TCR-β rearrangement was analyzed using PCR for TCR-β locus, pre-immune IG detection was analyzed using Thermo-Fisher Mouse Ig Isotyping kit, and delayed-type hypersensitivity was analyzed by injecting sheep RBC (Rockland Immunochemicals) in the footpad of pre-sensitized mice. E11.5 AGM were harvested from C57BL6/J Cd45.2 mouse embryos, and a single cell suspension of a three-embryo equivalent of cells was seeded on each well of a BioFlex six-well culture plate ([…]). We cultured cells overnight with the application of cyclic strain (Flexcell® FX4000TM Tension System) and/or treatment with chemical modulators (2-100 μM Yoda1, 1 μM Nanaomycin, 100 μM Gdcl3, 1 uM GsMT×4, 5-20 μM 4αPDD, 10 uM GSK205). Next, harvested cells were used to perform transplant, fluorescence-activated cell sorting (FACS) analysis, and colony-forming unit (CFU) assays. For CFU assays, cells from AGM explant or ex vivo were plated in MethoCult GF M3434 media (StemCell Technologies). Seven days after seeding, we analyzed their capacity to make granulocyte, erythroid, macrophage, megakaryocyte (GEMM), granulocyte macrophage (GM), granulocyte (G), macrophage (M), and erythroid (E) colonies.

Assay [1] has as its system cd41:eGFP+ HSCs emerging from flk1:mCherry+ endothelial cells. The experiment in a line: Time-lapse confocal imaging of cd41:eGFP+ HSCs emerging from flk1:mCherry+ endothelial cells in transgenic embryos. The format is in vivo, zebrafish. The note with it: embryos concurrently treated with or without Yoda1. Here is the method: Mice were purchased Cd45.2 (C57BL6/J) and Cd45.1 (SJL) from The Jackson Laboratory and zebrafish morpholinos from GeneTools. Microangiography was performed by injecting fluorescent-labeled dextran dye in the atrium of zebrafish heart and its passage was recorded using live imaging. Immunostaining of zebrafish heart and mouse AGM were analyzed using an inverted fluorescent microscope. Cardiac tamponade, heart rate, and pulse frequency were analyzed in zebrafish embryos using bright field imaging or time-lapse confocal microscopy. The movement of red blood cells in blood vessels was analyzed as well as the endothelial-to-HSC transition in zebrafish transgenic embryos using time-lapse confocal imaging.
as §1
cd41:eGFP were crossed with flk1:mCherry zebrafish and flk1:mCherry with lcr:eGFP zebrafish and injected morpholino in their transgenic embryos. […] The relative movement of lcr:eGFP^+ red blood cells was analyzed in the context of flk1:mCherry^+ endothelium. We performed image analysis using Imaris (Bitplane) software.

In the case of `[Cl][Gd]([Cl])[Cl]` [GdCl3, Gadolinium chloride], the HSPC expression entry in the assay on zebrafish embryos (zebrafish embryos) is recorded as “attenuated HSPC expression in zebrafish embryos to the level of sih-MO embryos”. The “formation of multipotent hematopoietic progenitors potentiated by 10% cyclic strain” value with E11.5 AGM cells (10% cyclic strain plus stretch-activated receptor inhibitor) was “attenuated”.
For the compound `Cc1oc(-c2ccccc2)cc1C(=O)O` [Jedi1], in the assay on E11.5 AGM cells, the GEMM formation result is reported as “enhances GEMM formation”.
Take `Cc1oc(-c2cccs2)cc1C(=O)O` [Jedi2]: the GEMM formation result with E11.5 AGM cells is listed as “enhances GEMM formation”.
In the case of `COC(=O)[C@@H](N)CCCNC(=N)N[N+](=O)[O-]` [L-NAME], the HSPC formation entry with zebrafish embryos (cdh5-MO embryos) is reported as “does not impact HSPC formation in cdh5-MO embryos”; with zebrafish embryos (control embryos), “attenuates HSPC formation in control embryos”.
Consider `CC1OC(CC(=O)O)CC2=C1C(=O)c1c(O)cccc1C2=O` (centres unmarked) [Nanaomycin], for which the HSPC marker expression entry in the assay on zebrafish embryos (control and cdh5-MO embryos) was “attenuated HSPC marker expression in control and cdh5-MO embryos”. For the same compound, the “hematopoietic colony formation stimulated by cyclic strain or Yoda1” value with E11.5 AGM cells (cyclic strain or Yoda1 in the presence of Nanaomycin) is on record as “attenuates the endothelial-to-HSC transition stimulated by circumferential stretch or Piezo1 activation”. Also, the “phenotype of hematopoietic cells after treatment” value in the assay with E11.5 AGM cells (stretch- or Piezo1 activation-treated AGM cells) is “reverts hematopoietic cells into phenotypic endothelial cells”. Besides, the “Piezo1 activation (Yoda1)-mediated increase in HSC formation” value in assay [1] is on record as “attenuated the Piezo1 activation-mediated increase in HSC formation”.
Regarding “GsMtX4: pharmacological inhibition of Piezo1 (GCLEFWWKCNPNDDKCCRPKLKCSKLFKLCNFSF; ends and bridges not checked; cysteine pairing not given here; UniProt Q7YT39 47-80, looked up)”, in the assay with E11.5 AGM cells (cyclic strain plus Piezo1 inhibitor), the “hematopoietic colony formation induced by cyclic strain” value is given as “attenuates the inductive impact of cyclic strain on the endothelial-to-HSC transition”.

These data come from patent publication US20230041065A1, “METHODS FOR GENERATING HEMATOPOIETIC STEM CELLS” (The Brigham and Women`s Hospital, Inc., priority 2019, published 2023).
